Four compounds from article PMC8878324, “Evaluation of New Antimicrobial Agents Based on tris(1H-Indol-3-yl)methylium Salts: Activity, Toxicity, Suppression of Experimental Sepsis in Mice” (Pharmaceuticals, 2022) can be followed below.

Broadly, the MIC is the least concentration at which growth counts as inhibited.

Type in all cases: cell-based
Test [1] relates to Staphylococcus epidermidis 533. Kind of test: MIC by broth microdilution. Here is the method: (§1) We have tested the antimicrobial activity in vitro of over 100 tris(indolyl)methane derivatives against 16 strains of Gram-positive, Gram-negative bacteria and fungi including either sensitive or drug-resistant strains from ATCC, as well as resistant clinical isolates from the culture collection of the Laboratory for Control of Hospital Infections (Sechenov University, Moscow, Russia). The minimum inhibitory concentrations (MICs) were determined by the microdilution method in a cation-adjusted Müller–Hinton medium for bacteria and in a liquid culture medium RPMI 1640 with L-glutamine without sodium bicarbonate for fungi in accordance with the requirements of the Institute of Clinical and Laboratory Standards (CLSI/NCCLS). […] As a rule, their activity against Gram-negative bacteria was usually not that high. […] For comparison, the antimicrobial activity of prototype 4 is shown. The antibacterial antibiotic levofloxacin and the antifungal amphotericin B were used as reference drugs (Table 1).
(§2) The synthesis of compounds and the scheme of their preparation and purification, as well as physicochemical characteristics, were described earlier. To evaluate the biological activity in vitro, the compounds were dissolved in DMSO at a concentration of 2.0–6.4 mg/mL, followed by preparation of two-fold dilutions in the same solvent, if necessary. The solutions were further diluted in an aqueous medium for the final concentration of DMSO not to exceed 1%, and the concentration of the compounds ranged from 64.0 to 0.13 μg/mL. To study compounds in vivo, solutions for intravenous administration in 5% glucose solution were prepared. Solutions were sterilized by filtration through 0.22 µm filters (Millipore, Burlington, MA, USA).
(§3) Strains of Gram-positive, Gram-negative bacteria and fungi including sensitive or drug-resistant strains from ATCC, as well as resistant clinical isolates from the culture collection of the Laboratory for Control of Hospital Infections (Sechenov University, Moscow, Russia), were used. Clinical isolates of Gram-positive bacteria Staphylococcus aureus 5 (MRSA), Staphylococcus aureus 10, Staphylococcus aureus 100KC (MRSA), Staphylococcus epidermidis 533, Staphylococcus haemoliticus 585 and Enterococcus faecium 569, as well as collection cultures of Gram-positive bacteria Staphylococcus aureus ATCC 700699, Staphylococcus aureus ATCC 25923, Staphylococcus aureus ATCC 3798 and collection cultures of Gram-negative bacteria Escherichia coli ATCC 25922, Klebsiella pneumoniae ATCC 13883, Proteus vulgaris ATCC 13315, Salmonella cholerasuis ATCC 14028, Pseudomonas aeruginosa ATCC 27853 and collection cultures of the yeast Candida albicans ATCC 14053 and the fungi Aspergillus niger ATCC 16404 were used. To grow the microorganisms, we used Trypticase Soy Agar (TSA, Sigma-Aldrich Co., Burlington, MA, USA). Trypticase Soy Agar, BBL, was used for cultivation of Staphylococcus spp. and E. coli. For cultivation of Enterococcus spp. and P. aeruginosa we used a ready-made dry medium Columbia Agar Base, BBL. The media were sterilized by autoclaving at 121 °C for 15 min. Yeast culture C. albicans was grown on Sabouraud agar (peptone—10 g, glucose—40 g, agar—20 g, distilled water—1 L, pH 6.0), and filamentous fungi A. niger was grown on potato–glucose agar (potatoes—200 g, glucose—20 g, agar—15 g, distilled water—1 L, pH 5.5–6.0).
(§4) To determine the antibacterial effect, a liquid Müller–Hinton medium (Becton, Dickinson and Company, Cockeysville, MD, USA) was used; to determine the effect of compounds on fungi we used RPMI 1640 medium with L-glutamine, without sodium bicarbonate, which was prepared from a dry medium (ICN Biomedicals Inc., Costa Mesa, CA, USA) by dilution in distilled water, subsequent buffering with 0.165 M of morpholinepropanesulfonic acid (MOPS, Acros Organics B.V.B.A., Morris Plains, NJ, USA) and adjusting the pH of the medium to 7.0 by adding 1 N of NaOH solution. […]
For orientation: Dilution methods test growth across graded concentrations, often in twofold steps.

Test [2] has as its system Staphylococcus aureus ATCC 3798. The test is described as follows: MIC by broth microdilution. The settings on record: ATCC3798. Here is the method: as §1, §2, §3, §4
Test [3] has as its system Staphylococcus haemoliticus 585. The test is described as follows: MIC by broth microdilution. The settings on record: for MIC: Staphylococcus haemoliticus 585. Here is the method: as §1, §2, §3, §4
The test system of the next test is Staphylococcus aureus 10. Kind of test: MIC by broth microdilution. The method, then:
as §1, §2, §3, §4

Test [4] relates to Staphylococcus aureus 100KC. Kind of test: MIC by broth microdilution. The note with it: Staphylococcus aureus 100KC (MRSA). The method, then:
as §1, §2, §3, §4

Another test has as its system Enterococcus faecium 569. The test is described as follows: MIC by broth microdilution. The note with it: for MIC: Enterococcus faecium 569; for activity against Enterococcus faecium 569: in words, strain resistant to cefuroxime, clindamycin, gentamycin, vancomycin and doxycycline. The method, then:
as §1, §2, §3, §4

Test [5] concerns Staphylococcus aureus ATCC 25923. The test is described as follows: MIC by broth microdilution. The note with it: ATCC25923. Here is the method:
as §1, §2, §3, §4

Test [6] deals with Salmonella cholerasuis ATCC 14028. The test is described as follows: MIC by broth microdilution. The note with it: ATCC14028. Here is the method:
as §1, §2, §3, §4

Test [7] deals with Escherichia coli ATCC 25922. The test is described as follows: MIC by broth microdilution. The settings on record: ATCC25922. The method, then: as §1, §2, §3, §4
Test [8] has as its system Staphylococcus aureus ATCC 700699. The test is described as follows: MIC by broth microdilution. The note with it: ATCC700699. Here is the method:
as §1, §2, §3, §4

The test system of another test is Staphylococcus aureus 5. The test is described as follows: MIC by broth microdilution. The settings on record: Staphylococcus aureus 5 (MRSA). The method, then:
as §1, §2, §3, §4

In test [9] the test system is Klebsiella pneumoniae ATCC 13883. The test is described as follows: MIC by broth microdilution. The note with it: ATCC13883. The method, then: as §1, §2, §3, §4
The subject of test [10] is Pseudomonas aeruginosa ATCC 27853. The test is described as follows: MIC by broth microdilution. The note with it: ATCC27853. The method, then:
as §1, §2, §3, §4

Test [11] deals with Proteus vulgaris ATCC 13315. The test is described as follows: MIC by broth microdilution. The note with it: ATCC13315. Here is the method: as §1, §2, §3, §4
In the next test the test system is Gram-positive bacteria. Kind of test: MIC against Gram-positive bacteria. Here is the method:
as §1
(§5) The minimum inhibitory concentrations (MIC) for Gram-positive and Gram-negative bacteria were determined by two-fold serial microdilution method in a cation-adjusted Müller–Hinton medium for bacteria and in a liquid culture medium RPMI 1640 with L-glutamine without sodium bicarbonate for fungi in accordance with the requirements of the Institute of Clinical and Laboratory Standards (CLSI/NCCLS). The antibacterial antibiotic levofloxacin and the antifungal antibiotic amphotericin B from Sigma-Aldrich were used as reference drugs.

Test [12] relates to yeast (Candida albicans) and fungi (Aspergillus niger). The test is described as follows: Antifungal activity. The settings on record: for antifungal activity: in words. Here is the method:
as §1, §5

Values after ≈ are worked out from the molar mass of the structure shown. Like-named read-outs stand apart in the source and are kept apart here. Where only a bound is given, the exact number is not on record here.

Regarding `OCCCCCn1cc([C+](c2cn(CCCCCO)c3ccccc23)c2cn(CCCCCO)c3ccccc23)c2ccccc21.[Cl-]` [Compound 1, tris(1-(5-Hydroxypentyl)-1H-indol-3-yl) methylium chloride], the MIC in [1] worked out at 1 µg/mL; in test [2], 2 µg/mL; in [3] it was 4 µg/mL; against Staphylococcus aureus 10 it was 1 µg/mL; in [4], 2 µg/mL; against Enterococcus faecium 569, 8 µg/mL. Besides, the MIC in test [5] was 2 µg/mL; in [6], more than 64 µg/mL; in [7], 8 µg/mL; in [8] it was 2 µg/mL; in the test on Staphylococcus aureus 5 it was 4 µg/mL; in test [9], 2 µg/mL. The MIC in [10] was more than 64 µg/mL; in test [11], 64 µg/mL; with Gram-positive bacteria (read-out: MIC), 2 µg/mL. The “activity against Enterococcus faecium 569” value with Enterococcus faecium 569 is recorded as “reduced activity”. Besides, the antifungal activity result in test [12] is recorded as “no antifungal activity at all”.

As for `CCCn1cc([C+](c2cn(CCC)c3ccccc23)c2cn(C3=C(N(C)C)C(=O)NC3=O)c3ccccc23)c2ccccc21` [Compound 3, 1-(4-Dimethylamino-2,5-dioxo-2,5-dihydro-1H-pyrrol-3-yl) -1H-indol-3-yl) bis(1-propyl-1H-indol-3-yl) methylium chloride], the MIC was 0.5 µg/mL in test [1]; 0.13 µg/mL in [2]; more than 64 µg/mL in test [3]; 0.25 µg/mL with Staphylococcus aureus 10; 0.13 µg/mL in test [4]; more than 64 µg/mL in the test with Enterococcus faecium 569. Further, the MIC was 0.13 µg/mL in test [5]; more than 64 µg/mL in test [6]; 16 µg/mL in [7]; 0.13 µg/mL in test [8]; 0.5 µg/mL against Staphylococcus aureus 5; more than 64 µg/mL in [9]. The MIC in test [10] is 16 µg/mL; in [11], more than 64 µg/mL; against Gram-positive bacteria, 0.13 µg/mL; in test [12] (Candida albicans and Aspergillus niger) it was 2 µg/mL. The “activity against Staphylococcus haemoliticus 585” value in [3] (in words, clinical isolate resistant to penicillins, aminoglycosides and erythromycin) was “not active”. Also, the “activity against Enterococcus faecium 569” value in the test on Enterococcus faecium 569 is “inactive”.

Consider `CCCn1cc([C+](c2cn(CCC)c3ccccc23)c2cn(C3=C(N)C(=O)NC3=O)c3ccccc23)c2ccccc21.[Cl-]` [Compound 2, (1-(4-Amino-2,5-dioxo-2,5-dihydro-1H-pyrrol-3-yl)-1H-indol-3-yl)bis(1-propyl-1H-indol-3-yl) methylium chloride], for which the MIC came out at 0.5 µg/mL in test [1]; 0.25 µg/mL in test [2]; 2 µg/mL in test [3]; 0.5 µg/mL with Staphylococcus aureus 10; 0.5 µg/mL in test [4]; 8 µg/mL in the test on Enterococcus faecium 569. The MIC was 0.5 µg/mL in test [5]; more than 64 µg/mL in [6]; more than 64 µg/mL in test [7]; 0.5 µg/mL in test [8]; 0.25 µg/mL in the test with Staphylococcus aureus 5; more than 64 µg/mL in test [9]. For the same compound, the values for the MIC in test [10] and in [11] were 32 µg/mL and 16 µg/mL, respectively. For the same compound, the antifungal activity entry in test [12] is listed as “low antifungal activity”.

Consider `C[C@H]1COc2c(N3CCN(C)CC3)c(F)cc3c(=O)c(C(=O)O)cn1c23` [Levofloxacin, levofloxacin, reference compound], for which the MIC turned out to be 0.5 µg/mL (≈ 1.38 µM) in [1]; 32 µg/mL (≈ 88.6 µM) in test [2]; 0.5 µg/mL (≈ 1.38 µM) in [3]; 0.13 µg/mL (≈ 0.36 µM) against Staphylococcus aureus 10; 32 µg/mL (≈ 88.6 µM) in test [4]; 1 µg/mL (≈ 2.77 µM) with Enterococcus faecium 569. The MIC in test [5] amounted to 0.25 µg/mL (≈ 0.692 µM); in test [6], 0.13 µg/mL (≈ 0.36 µM); in test [7], 0.06 µg/mL (≈ 0.166 µM); in test [8], 16 µg/mL (≈ 44.3 µM); in the test on Staphylococcus aureus 5, 0.25 µg/mL (≈ 0.692 µM); in test [9], 0.25 µg/mL (≈ 0.692 µM). Besides, the MIC in [10] is 1 µg/mL (≈ 2.77 µM); in test [11], 4 µg/mL (≈ 11.1 µM).
